The results in this text go back to paper PMC11472310, “Distinctive Immune Signatures Driven by Structural Alterations in Desmuramylpeptide NOD2 Agonists” (Journal of Medicinal Chemistry, 2024).

Values after ≈ are worked out from the molar mass of the structure shown. Read-outs that look alike come from different tables or passages of the source.

The target of one series is T1, hNOD2 (Homo sapiens, UniProt Q9HC29).
T1 construct: host or cells: HEK-Blue NOD2 cells (HEK293)
As to the kind of experiment: HEK-Blue NOD2 cell line reporter assay (NF-κB-inducible SEAP). The class given is cell-based. Here is the method:
To assess the NOD2 agonistic potential of the synthesized desmuramylpeptides at a cellular level, we employed the HEK-Blue NOD2 cell line reporter assay, a validated and commercially available method. All synthesized compounds were evaluated for their dose-dependent activities to establish their EC50 values.
The HEK-Blue NOD1 and NOD2 cell line reporter assay was generated from HEK293 cells through cotransfection of the hNOD1 or hNOD2 gene, respectively, along with an NF-κB-inducible secreted embryonic alkaline phosphatase (SEAP) reporter gene. Upon activation of NOD1 or NOD2, NF-κB triggers the production of SEAP, which can be quantitatively measured colorimetrically. […] After 18 h of incubation at 37 °C with 5% CO2, SEAP activity was measured spectrophotometrically by absorbance at 630 nm (BioTek Synergy microplate reader; Winooski, VT, USA). EC50 values were determined using Prism software (version 9; GraphPad Software, CA, USA). Each experiment was conducted in duplicate and repeated in at least two independent biological replicates.

The subject of a further series is human PBMCs. As to the kind of experiment: Cytokine release from peripheral blood mononuclear cells (LEGENDplex panel). Format: cell-based. The following applies: 18 h. An excerpt:
The immunomodulatory effects of the selected desmuramylpeptides were examined in human primary peripheral blood mononuclear cells (PBMCs). This diverse mixture of immune cells provided a platform to investigate the effects of these NOD2 agonists within a physiologically relevant environment, encompassing other NOD2-interacting and downstream signaling proteins. […] Given that NOD2 activation often modulates the Toll-like receptor (TLR)-induced cytokine responses, we investigated the impact of combining desmuramylpeptides with lipopolysaccharide (LPS), a well-known TLR4 agonist, on cytokine secretion.[76]−[78]
The elicited cytokine profiles thus broadly reflect the structure–activity relationships obtained in the reporter gene assays.
Peripheral blood mononuclear cells were plated at a density of 1 × 10^6 cells/mL in 48-well plates containing 500 μL of growth medium. Cells were then treated with the compounds (2 μM) or the corresponding vehicle (0.1% DMSO), both in the absence and presence of LPS (10 ng/mL). Following an 18 h incubation period at 37 °C with 5% CO2, cell-free supernatants were collected and stored at −80 °C until analysis. […] Standard curves were constructed using recombinant cytokines provided in the kit. Data analysis was performed using Biolegend software Qognit and Prism (GraphPad, San Diego, CA, USA) software. The experiments were independently replicated four times. Statistical significance was determined using two-way analysis of variance (ANOVA) followed by Tukey’s multiple comparisons test.

The next series has as its system PBMCs. As to the kind of experiment: Direct cytotoxic effect of compounds on PBMCs (Sytox blue). Format: cell-based. The following applies: Table S2; for Percent of dead PBMCs, + LPS: 10 μM + LPS 1 μg/mL; for Percent of dead PBMCs: alone: compounds 10 μM, LPS 1 μg/mL, IL-2 200 U/mL. Here is the method: Additionally, PBMCs and cancer cells alone were treated with desmuramylpeptides to assess any direct cytotoxic effects on these cells.
(§1) The PBMC cytotoxicity assays utilizing K562 cells were conducted following previously established methods, with some adjustments.[82] […] Meanwhile, K562 cells were stained with CFSE (Invitrogen, Carlsbad, CA, USA), washed twice with complete medium, and then added (1 × 10^4 cells per well) to the pretreated PBMCs to achieve a final effector cell to target tumor cell ratio of 40:1. Following a 4-h coincubation period at 37 °C with 5% CO2, cells were stained with Sytox blue dead cell stain (Invitrogen) and analyzed using an Attune NxT flow cytometer (Thermo Fisher Scientific, Waltham, MA, USA) along with FlowJo software (Tree Star, Inc., Ashland, OR, USA). Cells positive for both CFSE and Sytox blue were designated as dead K562 cells. PBMCs alone and CFSE-labeled cancer cells alone were also exposed to the compounds at equivalent concentrations and stained with Sytox blue to assess any direct cytotoxic effects of the compounds on PBMCs and cancer cells separately. Each experiment was conducted in duplicate and repeated in three independent biological replicates. Statistical analysis was performed using one-way ANOVA followed by Dunnett’s multiple comparisons test.

The subject of a further series is K562 cancer cells. As to the kind of experiment: PBMC cytotoxicity against K562 cancer cells (flow cytometry). The class given is cell-based. The following applies: for cytotoxicity of PBMCs against K562 cells, cotreatment with LPS (relative to negative control) / Cytotoxicity (ratio to control), + LPS: 10 μM + LPS 1 μg/mL; for cytotoxicity of PBMCs against K562 cells, cotreatment with LPS (relative to negative control) / enhancement of cytotoxicity of PBMCs against K562 cells (relative to negative control): 18 h, then 4 h coincubation; for cytotoxicity of PBMCs against K562 cells, cotreatment with LPS (relative to negative control): 40:1; for Cytotoxicity (ratio to control), + LPS / Cytotoxicity (ratio to control): Table S2; for Cytotoxicity (ratio to control) / enhancement of cytotoxicity of PBMCs against K562 cells (relative to negative control): alone: compounds 10 μM, LPS 1 μg/mL, IL-2 200 U/mL; for enhancement of cytotoxicity of PBMCs against K562 cells (relative to negative control): effector:target 40:1. The method, then: In this study, we investigated the potential of desmuramylpeptides, both alone and in combination with LPS, to enhance the cytotoxic activity of PBMCs against cancer cells employing a flow-cytometry-based cytotoxicity assay based on coincubation of preactivated PBMCs with fluorescently labeled K562 cancer cells.[82] Among the diverse subpopulations within PBMCs, natural killer (NK) cells play a pivotal role in detecting and eliminating cancer cells. NOD2-mediated NK cell activity against cancer cells arises from both direct NOD2 agonist elicited cytolytic activity of NK cells[83] and indirect activation through cytokine release by other NOD2-responsive cells, such as monocytes, which comprise approximately 10% of PBMCs; such interactions potentially reinforce the immune response.[84] […] To that end, we utilized the entire PBMC population as effector cells rather than isolated NK cells, to mimic conditions more closely resembling the in vivo environment while K562 chronic myelogenous leukemia cells were used as the target cells in a 40:1 effector to target cell ratio.[87]
as §1

The nature of series [1]: Kinetic solubility (method of Hoelke et al.). The class given is physicochemical. An excerpt:
Park et al. have shown that the degree of saturation of fatty acids exerts a profound impact on permeability of fatty acylated peptides—a higher degree of unsaturation results in higher permeability.[43] PUFA can also induce significant biophysical perturbations upon incorporation into membrane phospholipids.[67],[68] […] Given that the hydrophobicity of fatty acyl residues in general reduces as the number of unsaturated sites increases,[69],[70] we decided to ascertain how such structural modifications translate to the kinetic solubility of the molecule as a whole. […] The acylation with PUFA thus provides an elegant, albeit counterintuitive, approach, by which permeability of the molecule as a whole as well as its capacity for liposomal encapsulation can be enhanced without completely abolishing its aqueous solubility.

The mark [2] stands for this setting: HEK-Blue NOD2 cells, 18 h, NF-κB transcriptional activity (SEAP), read-out: EC50 (nM), NOD2 agonistic activity.

T1 sequence (Q9HC29 whole entry): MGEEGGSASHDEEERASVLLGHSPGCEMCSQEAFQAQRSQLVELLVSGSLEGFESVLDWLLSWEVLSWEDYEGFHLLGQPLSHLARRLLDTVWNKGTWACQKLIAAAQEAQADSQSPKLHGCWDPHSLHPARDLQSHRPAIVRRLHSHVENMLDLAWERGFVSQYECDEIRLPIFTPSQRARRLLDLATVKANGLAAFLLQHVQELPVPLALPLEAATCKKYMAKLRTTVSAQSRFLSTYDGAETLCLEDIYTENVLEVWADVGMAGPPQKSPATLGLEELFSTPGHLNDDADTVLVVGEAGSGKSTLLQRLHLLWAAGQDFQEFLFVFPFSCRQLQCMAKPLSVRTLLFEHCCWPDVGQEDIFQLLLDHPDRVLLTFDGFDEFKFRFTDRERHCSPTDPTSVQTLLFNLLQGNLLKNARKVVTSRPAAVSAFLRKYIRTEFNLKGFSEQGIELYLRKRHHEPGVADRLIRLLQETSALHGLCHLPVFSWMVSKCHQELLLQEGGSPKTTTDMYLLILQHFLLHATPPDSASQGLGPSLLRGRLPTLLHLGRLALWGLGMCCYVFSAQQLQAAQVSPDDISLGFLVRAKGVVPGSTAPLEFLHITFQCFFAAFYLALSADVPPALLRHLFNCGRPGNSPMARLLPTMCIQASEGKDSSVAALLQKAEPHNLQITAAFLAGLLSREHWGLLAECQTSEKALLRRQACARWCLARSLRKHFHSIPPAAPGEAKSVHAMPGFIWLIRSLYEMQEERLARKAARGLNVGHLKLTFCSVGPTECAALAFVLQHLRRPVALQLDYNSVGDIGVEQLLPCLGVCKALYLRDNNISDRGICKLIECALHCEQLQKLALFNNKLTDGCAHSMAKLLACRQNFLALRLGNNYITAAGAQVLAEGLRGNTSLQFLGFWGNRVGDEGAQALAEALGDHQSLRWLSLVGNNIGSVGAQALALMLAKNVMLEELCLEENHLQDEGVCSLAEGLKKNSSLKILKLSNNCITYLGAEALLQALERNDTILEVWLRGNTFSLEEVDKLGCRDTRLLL

As for `CCOC(=O)[C@@H](CCC(=O)NCCCNCCCCNCCCN)NC(=O)[C@@H](NC(=O)CNC(=O)/C=C/c1ccc(O)c(OC)c1)C(C)C` [Compound 32, N^5-(3-((4-((3-Aminopropyl)amino)butyl)amino)propyl)-N^2-((E)-3-(4-hydroxy-3-methoxyphenyl)acryloyl)glycyl-L-valyl-D-glutaminate], the half-maximal effective concentration (EC50) on hNOD2 (setting [2]) amounted to 8640 ± 1920 nM. The EC50 on hNOD2 (HEK-Blue NOD2 cells, 18 h, read-out: EC50, NOD2 agonistic activity (text)) stood at 8600 nM. Further, in the series with human PBMCs (2 μM + LPS 10 ng/mL), the “amounts of IL-1β, IL-6, IL-10, TNF-α and IFN-γ compared to the MDP/LPS combination” value is listed as “lesser amounts”; the “levels of LPS-induced IL-10” value is recorded as “opposite”; the “levels of secreted MCP-1 compared to the MDP/LPS combination” value is “on par”. The “production of proinflammatory cytokines and chemokines including IL-6, IL-8 and MCP-1” value with human PBMCs (2 μM alone (no LPS)) is given as “smaller increases”. In the series on PBMCs, the “Percent of dead PBMCs, + LPS” value was 7.20% ± 0.36% and the “Percent of dead PBMCs” value is on record as 1.01% ± 0.22%. For the same compound, in the series on K562 cancer cells, the “cytotoxicity of PBMCs against K562 cells, cotreatment with LPS (relative to negative control)” value is 2.95 fold; the “Cytotoxicity (ratio to control), + LPS” value turned out to be 2.95 ± 0.41; the “Cytotoxicity (ratio to control)” value is recorded as 1.10 ± 0.06; the “enhancement of cytotoxicity of PBMCs against K562 cells (relative to negative control)” value is reported as “devoid of the capacity to induce cytotoxicity”.

As for `CCCCCCCCCCCC(=O)Oc1ccc(/C=C/C(=O)NCC(=O)N[C@H](C(=O)N[C@H](CCC(=O)OCC)C(=O)OCC)C(C)C)cc1OC` [Compound 2], the “boost of NOD2 agonist activity on incorporation into SLN/NLC” value at hNOD2 (2-loaded SLNs and NLCs versus free 2) is 5 factor. Moreover, the EC50 on hNOD2 (HEK-Blue NOD2 cell line, SLN and NLC formulations by melt-emulsification) worked out at 10.5 nM. For the same compound, the EC50 on hNOD2 (setting [2]) is 9.9 ± 0.69 nM. In the series on human PBMCs (2 μM + LPS 10 ng/mL), the “levels of LPS-induced IL-10” value was “amplified”; the “production of MCP-1 and IFN-γ compared to the MDP/LPS combination” value was “significantly diminished production”; the “secretion of IL-1β, IL-10 and TGFβ compared to the MDP/LPS combination” value is on record as “increased secretion”. For the same compound, the Kinetic solubility entry in series [1] was “insoluble”. Besides, in the series on PBMCs, the “Percent of dead PBMCs, + LPS” value was 8.07% ± 0.47% and the “Percent of dead PBMCs” value is given as 0.96% ± 0.14%. In the series on K562 cancer cells, the “cytotoxicity of PBMCs against K562 cells, cotreatment with LPS (relative to negative control)” value amounted to 1.54 fold; the “Cytotoxicity (ratio to control), + LPS” value was found to be 1.54 ± 0.08; the “Cytotoxicity (ratio to control)” value is listed as 1.00 ± 0.05; the “enhancement of cytotoxicity of PBMCs against K562 cells (relative to negative control)” value is listed as “no activity”.

With `CCOC(=O)CC[C@@H](NC(=O)[C@@H](NC(=O)CNC(=O)/C=C/c1cc(OC)c(O)c(OC)c1)C(C)C)C(=O)OCC` [Compound 37, Diethyl ((E)-3-(4-Hydroxy-3,5-dimethoxyphenyl)acryloyl)glycyl-L-valyl-D-glutamate], the EC50 at hNOD2 (setting [2]) was 96.1 ± 51.5 nM. Moreover, the kinetic solubility in series [1] came to 321 µM (≈ 182 µg/mL).

For the compound `CCOC(=O)CC[C@@H](NC(=O)[C@@H](NC(=O)CNC(=O)/C=C/c1ccc(O)c(OC)c1)C(C)C)C(=O)OCC` [Compound 1], in series [1], the solubility (kinetic) turned out to be 417 µM (≈ 223 µg/mL).

In the case of `CCCCCCCCCCCCCCCC(=O)Oc1ccc(/C=C/C(=O)NCC(=O)N[C@H](C(=O)N[C@H](CCC(=O)OCC)C(=O)OCC)C(C)C)cc1OC` [Compound 9, Diethyl ((E)-3-(3-Methoxy-4-(palmitoyloxy)phenyl)acryloyl)glycyl-L-valyl-D-glutamate], at hNOD2 (setting [2]), the EC50 is 382 ± 121 nM. Moreover, in series [1], the Kinetic solubility result was “insoluble”.

On to `CCOC(=O)[C@@H](CCC(=O)OCCN1CCOCC1)NC(=O)[C@@H](NC(=O)CNC(=O)/C=C/c1ccc(O)c(OC)c1)C(C)C` [Compound 35, 1-Ethyl 5-(2-Morpholinoethyl) ((E)-3-(4-hydroxy-3-methoxyphenyl)acryloyl)glycyl-L-valyl-D-glutamate], for which the EC50 on hNOD2 (setting [2]) is 356 ± 24 nM. Further, the “drop in activity compared to 1” value on hNOD2 (ethyl ester replaced with morpholinoethyl) turned out to be 4 factor. The same compound registered a kinetic solubility in series [1] of 209 µM (≈ 130 µg/mL).
